Each structure is given as a SMILES string. Converted amounts (≈) assume the structure as drawn. “Also recorded” adds a separate entry of the source. Counter-ions that a name gives are not always drawn.

The source of these data is US20230382888A1, “HDAC INHIBITOR SOLID STATE FORMS” (Viracta Subsidiary, Inc., priority 2020, published 2023).

Data set [1] in a line: Gravimetric vapour sorption (GVS). Type of data set: physicochemical. The following applies: for Hygroscopicity by GVS: 25° C.; for XRPD post-GVS (solid form): residue after GVS; for Water uptake, first sorption cycle: 40-90% RH; for Starting water content in GVS: at 40% RH. Here is the method: Sorption isotherms were obtained using a SMS DVS Intrinsic moisture sorption analyser, controlled by DVS Intrinsic Control software. The sample temperature was maintained at 25° C. by the instrument controls. The humidity was controlled by mixing streams of dry and wet nitrogen, with a total flow rate of 200 ml/min. The relative humidity was measured by a calibrated Rotronic probe (dynamic range of 1.0 — 100% RH), located near the sample. The weight change, (mass relaxation) of the sample as a function of % RH was constantly monitored by a microbalance (accuracy ±0.005 mg). Typically, 20-30 mg of sample was placed in a tared mesh stainless steel basket under ambient conditions. The sample was loaded and unloaded at 40% RH and 25° C. (typical room conditions). A moisture sorption isotherm was performed as outlined below (2 scans per complete cycle). The standard isotherm was performed at 25° C. at 10% RH intervals over a 0-90% RH range. Typically, a double cycle (4 scans) was carried out. Data analysis was carried out within Microsoft Excel using the DVS Analysis Suite. [table]

Data set [2] in a line: Static storage stability at elevated temperature/humidity (XRPD, HPLC). Type of data set: physicochemical. The following applies: for HPLC purity after static storage / Appearance after static storage: 1 week; for Solid form by XRPD after static storage: 7 days (1 week).
The format of data set [3] is physicochemical. An excerpt:
There was insufficient residue to characterize these further.

The nature of data set [4]: Thermodynamic aqueous solubility. Type of data set: physicochemical. The settings on record: for pH of saturated solution: water, after 24 hours equilibration at 25° C. Here is the method:
Aqueous solubility was determined by suspending sufficient compound in 0.5 ml deionized water to give a maximum final concentration of 40 mg/ml of the parent free-form of the compound. The suspension was equilibrated at 25° C., on a Heidolph plate shaker set to 750 rpm for 24 hours. After equilibration, the appearance was noted and the pH of the saturated solution was measured. Samples forming suspensions were centrifuged for 4 min at 13,500 rpm. Samples were then filtered through a glass fiber C filter (particle retention 1.2 μm), before dilution with H2 O as appropriate. Quantitation was by HPLC (see Table 2 for parameters) with reference to a standard solution of approximately 0.15 mg/ml in DMSO. Different volumes of the standard, diluted and undiluted sample solutions were injected. The solubility was calculated using the peak areas determined by integration of the peak found at the same retention time as the principal peak in the standard injection. Analysis was performed on an Agilent HP1100/Infinity II 1260 series system equipped with a diode array detector and using OpenLAB software.

Data set [5] is described as follows: Intrinsic dissolution rate (IDR) in FaSSGF. Type of data set: physicochemical. The settings on record: Fasted State Simulated Gastric Fluid.

For the compound `O=C(NO)c1cnc(N2C[C@@H]3[C@H](C2)[C@H]3NCc2ccc3cc(F)ccc3n2)nc1` [Mesylate Form 5, N-hydroxy 2-{6-[(6-fluoro-quinolin-2-ylmethyl)-amino]-3-aza-bicyclo[3.1.0]hex-3-yl}pyrimidine-5-carboxamide], in data set [1], the “Hygroscopicity by GVS” value was “hygroscopic” and the “XRPD post-GVS (solid form)” value was “remaining unchanged; also recorded: stable after GVS analysis; also recorded: XRPD Post-GVS: Mesylate Form 5”. Moreover, in data set [2] (25° C./97% RH), the “HPLC purity after static storage” value is listed as 99.5% and the “Solid form by XRPD after static storage” value is on record as “remained as Mesylate Form 5; also recorded: Unchanged: Mesylate Form 5”. In data set [2] (40° C./75% RH), the “HPLC purity after static storage” value was determined as 99.5% and the “Solid form by XRPD after static storage” value is on record as “remained as Mesylate Form 5; also recorded: Unchanged: Mesylate Form 5”. Further, in data set [3], the “Solubility residue (solid form)” value is on record as “new solubility residue patterns”.

In the case of `O=C(NO)c1cnc(N2CC3C(C2)C3NCc2ccc3cc(F)ccc3n2)nc1` (stereo not shown) [Mesylate Form 8, N-hydroxy 2-{6-[(6-fluoro-quinolin-2-ylmethyl)-amino]-3-aza-bicyclo[3.1.0]hex-3-yl}pyrimidine-5-carboxamide], the “Solid form by XRPD after static storage” value in data set [2] (25° C./97% RH) and in data set [2] (40° C./75% RH) was “converted to Mesylate Form 1” throughout.

For the compound `O=C(NO)c1cnc(N2C[C@@H]3[C@H](C2)[C@H]3NCc2ccc3cc(F)ccc3n2)nc1` [Free Base Form A, N-hydroxy 2-{6-[(6-fluoro-quinolin-2-ylmethyl)-amino]-3-aza-bicyclo[3.1.0]hex-3-yl}pyrimidine-5-carboxamide], in data set [4] (thermodynamic from solid, deionized water, 25° C., 24 hours, maximum final concentration 40 mg/ml of parent free-form), the solubility at 24 h was determined as 1 µg/mL (≈ 2.54 µM). The “pH of saturated solution” value in data set [4] is given as “(pH = 7.4)”. Also, the “IDR in FaSSGF” value in data set [5] is 1.1 mg/min/cm^2.

Take `O=C(NO)c1cnc(N2C[C@@H]3[C@H](C2)[C@H]3NCc2ccc3cc(F)ccc3n2)nc1` [Mesylate Form 2, N-hydroxy 2-{6-[(6-fluoro-quinolin-2-ylmethyl)-amino]-3-aza-bicyclo[3.1.0]hex-3-yl}pyrimidine-5-carboxamide]: the “Hygroscopicity by GVS” value in data set [1] and in data set [1] (listed as Form 2) was “slightly hygroscopic” each time. Moreover, the “XRPD post-GVS (solid form)” value in data set [1] is recorded as “unchanged; also recorded: XRPD Post-GVS: Mesylate Form 2”. Also, the “Solid form by XRPD after static storage” value in data set [2] (25° C./97% RH) is “unchanged; also recorded: Mesylate Form 2”; in data set [2] (25° C./97% RH, listed as Form 2), “stable after 1 week”; in data set [2] (40° C./75% RH), “unchanged; also recorded: Mesylate Form 2”; in data set [2] (40° C./75% RH, listed as Form 2), “stable after 1 week”.

On to `O=C(NO)c1cnc(N2CC3C(C2)C3NCc2ccc3cc(F)ccc3n2)nc1` (stereo not shown) [Mesylate Form 9, N-hydroxy 2-{6-[(6-fluoro-quinolin-2-ylmethyl)-amino]-3-aza-bicyclo[3.1.0]hex-3-yl}pyrimidine-5-carboxamide], for which, in data set [2] (25° C./97% RH), the “Appearance after static storage” value is given as “Sample appeared wet-white solid still present” and the “Solid form by XRPD after static storage” value was “Poorly crystalline-Mesylate Form 1”. In addition, in data set [2] (40° C./75% RH), the “Appearance after static storage” value is on record as “color change to yellow; also recorded: Sample appeared ‘damp’-yellow solid present” and the “Solid form by XRPD after static storage” value was “Mesylate Form 1”.

Take `O=C(NO)c1cnc(N2C[C@@H]3[C@H](C2)[C@H]3NCc2ccc3cc(F)ccc3n2)nc1` [Mesylate Form 4, N-hydroxy 2-{6-[(6-fluoro-quinolin-2-ylmethyl)-amino]-3-aza-bicyclo[3.1.0]hex-3-yl}pyrimidine-5-carboxamide]: in data set [1], the “Water uptake, first sorption cycle” value worked out at 0.7%; the “Starting water content in GVS” value was determined as 9.4%; the “XRPD post-GVS (solid form)” value is “conversion to Mesylate Form 1; also recorded: Post-GVS: Converted to Mesylate Form 1 by XRPD”. For the same compound, the “Gradual water loss, desorption cycle 1” value in data set [1] (down to 20% RH) is on record as 0.8%. In data set [2] (25° C./97% RH), the “HPLC purity after static storage” value came to 99.5% and the “Solid form by XRPD after static storage” value is “conversion to Mesylate Form 1; also recorded: converted to Mesylate Form 1”. For the same compound, the “HPLC purity after static storage” value in data set [2] (40° C./75% RH) stood at 99.4%. Besides, in data set [3], the “Thermodynamic solubility in FaSSGF” value was 24.0 mg/mL.

Take `O=C(NO)c1cnc(N2C[C@@H]3[C@H](C2)[C@H]3NCc2ccc3cc(F)ccc3n2)nc1` [Free Base Form B, N-hydroxy 2-{6-[(6-fluoro-quinolin-2-ylmethyl)-amino]-3-aza-bicyclo[3.1.0]hex-3-yl}pyrimidine-5-carboxamide]: in data set [4] (deionized water, 25° C., 24 hours, maximum final concentration 40 mg/ml of parent free-form), the Solubility in water stood at 1 µg/mL (≈ 2.54 µM). Besides, the “pH of saturated solution” value in data set [4] is given as “(pH = 7.4)”. Besides, the “IDR in FaSSGF” value in data set [5] is given as 1.8 mg/min/cm^2.

For `O=C(NO)c1cnc(N2CC3C(C2)C3NCc2ccc3cc(F)ccc3n2)nc1` (stereo not shown) [Mesylate Form 6, N-hydroxy 2-{6-[(6-fluoro-quinolin-2-ylmethyl)-amino]-3-aza-bicyclo[3.1.0]hex-3-yl}pyrimidine-5-carboxamide], the “Solid form by XRPD after static storage” value in data set [2] (25° C./97% RH) and in data set [2] (40° C./75% RH) was “converted to Mesylate Form 1” throughout.

Take `O=C(NO)c1cnc(N2C[C@@H]3[C@H](C2)[C@H]3NCc2ccc3cc(F)ccc3n2)nc1` [Mesylate Form 3, N-hydroxy 2-{6-[(6-fluoro-quinolin-2-ylmethyl)-amino]-3-aza-bicyclo[3.1.0]hex-3-yl}pyrimidine-5-carboxamide]: the “Water loss, desorption cycle 1” value in data set [1] (30-20% RH) is recorded as “Desorption Cycle 1 22% water loss from 30-20% RH”. Also, in data set [1], the “Water uptake, first sorption cycle” value is on record as 2%; the “Starting water content in GVS” value came out at 25.1%; the “XRPD post-GVS (solid form)” value was “XRPD Post-GVS: Poorly crystalline broad reflections may match”. Further, the “Water content on desorption cycle 1” value in data set [1] (at 30% RH) was determined as 24.3%. In data set [2] (25° C./97% RH), the “HPLC purity after static storage” value stood at 96.6% and the “Solid form by XRPD after static storage” value was “remained unchanged; also recorded: Mesylate Form 3”. Also, the “Solid form by XRPD after static storage” value in data set [2] (25° C./97% RH, listed as Form 3) was “remained as Mesylate Form 3”. In data set [2] (40° C./75% RH), the “HPLC purity after static storage” value is 97.0% and the “Solid form by XRPD after static storage” value is recorded as “conversion to the sesquihydrate Mesylate Form 5”. The “Solid form by XRPD after static storage” value in data set [2] (40° C./75% RH, listed as Form 3) is reported as “convert to Mesylate Form 5”. In addition, in data set [3], the “Solubility residue (solid form)” value was “new solubility residue patterns”.

As for `O=C(NO)c1cnc(N2CC3C(C2)C3NCc2ccc3cc(F)ccc3n2)nc1` (stereo not shown) [amorphous mesylate salt, N-hydroxy 2-{6-[(6-fluoro-quinolin-2-ylmethyl)-amino]-3-aza-bicyclo[3.1.0]hex-3-yl}pyrimidine-5-carboxamide], the “Solid form by XRPD after static storage” value is given as “Amorphous, with low-level peak at 3.7° 2θ” in data set [2] (25° C./97% RH); “largely amorphous” in data set [2] (25° C./97% RH, listed as amorphous); “Amorphous, with low-level peak at 3.7° 2θ” in data set [2] (40° C./75% RH); “largely amorphous” in data set [2] (40° C./75% RH, listed as amorphous).

On to `O=C(NO)c1cnc(N2CC3C(C2)C3NCc2ccc3cc(F)ccc3n2)nc1` (stereo not shown) [Mesylate Form 7, N-hydroxy 2-{6-[(6-fluoro-quinolin-2-ylmethyl)-amino]-3-aza-bicyclo[3.1.0]hex-3-yl}pyrimidine-5-carboxamide], for which the “Solid form by XRPD after static storage” value in data set [2] (25° C./97% RH) and in data set [2] (40° C./75% RH) was “converted to Mesylate Form 1” throughout.

`O=C(NO)c1cnc(N2C[C@@H]3[C@H](C2)[C@H]3NCc2ccc3cc(F)ccc3n2)nc1` [Compound 1, N-hydroxy-2-{6-[(6-fluoro-quinolin-2-ylmethyl)-amino]-3-aza-bicyclo[3.1.0]hex-3-yl}pyrimidine-5-carboxamide]: the Solubility in water entry in data set [4] (deionized water, 25° C., 24 hours, maximum final concentration 40 mg/ml of parent free-form, listed as Free base) was “essentially insoluble in water”.

In general, solubility refers to how much of the substance goes into solution per volume.
